Laboratory results: patent US10633389B2, “CARM1 inhibitors and uses thereof” (Epizyme, Inc., priority 2013, dated 2020)

What follows are molecules tested on asymmetric di-methyl PABP1 in RKO cells (assay: RKO methylation assay, In Cell Western (ICW) for asymmetric di-methyl PABP1). Conditions: Homo sapiens, RKO, Cellular potencies, ICW PABP1me2a.
Assay type: cell-based
Summary of the method: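 In-cell Western on fixed RKO cells after 48 h compound exposure: anti-asymmetric di-methyl PABP1 signal at 800 nm over DRAQ5 DNA signal at 700 nm. Percent inhibition set between DMSO wells and wells with 20 μM reference compound; IC50 curves fitted in triplicate.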

SMILES	IC50 [µM]
CNCC(O)COc1cccc(-c2nc(N[C@@H]3CCOC3)c(C)c(-n3nc(C)cc3C)n2)c1 (stereo partly drawn) [Example 382-1a]	10 to 20
CNCC(O)COc1cccc(-c2nc(N[C@@H]3CCOC3)c(C)c(N3CCN(CC(=O)N(C)C)CC3)n2)c1 (stereo partly drawn) [Example 391-1a]	10 to 20
CNCC(O)COc1cccc(-c2nc(N[C@@H]3CCOC3)c(C)c(N3CC[C@@H](N(C)C)C3)n2)c1 (stereo partly drawn) [Example 392-1a]	5 to 10
CNCC(O)COc1cccc(-c2nc(N[C@@H]3CCOC3)c(C)c(N3Cc4cccnc4C3)n2)c1 (stereo partly drawn) [Example 394-1a]	< 5
CNCC(O)COc1cccc(-c2nc(N[C@@H]3CCOC3)c(C)c(N3CCN(C(C)=O)[C@@H](C)C3)n2)c1 (stereo partly drawn) [Example 396-1a]	10 to 20
CNCC(O)COc1cccc(-c2nc(NC3CCOC3)c(C)c(C(=O)NC3CCN(C)CC3)n2)c1 (stereo not drawn) [Example 397-1a]	10 to 20
CNCC(O)COc1cccc(-c2nc(NC3CCOC3)c(C)c(N3CC4(CCNCC4)c4ccccc43)n2)c1 (stereo not drawn) [Example 398-1a]	10 to 20
CNCC(O)COc1cccc(-c2nc(N[C@@H]3CCOC3)c(C)c(-c3ccc(OC)nc3)n2)c1 (stereo partly drawn) [Example 408-1a]	5 to 10
CNCC(O)COc1cccc(-c2nc(N[C@@H]3CCOC3)c(C)c(N3CC4CCC(C3)O4)n2)c1 (stereo partly drawn) [Example 412-1a]	10 to 20
CNCC(O)COc1cccc(-c2nc(N[C@@H]3CCOC3)c(C)c(C3=CC(C)(C)NC(C)(C)C3)n2)c1 (stereo partly drawn) [Example 415-1a]	10 to 20
CNCC(O)COc1cccc(-c2nc(NC3CCOC3)c(C)c(N3CCN(C(C)=O)C[C@H]3C)n2)c1 (stereo partly drawn) [Example 421-1a]	5 to 10
CNCC(O)COc1cccc(-c2nc(N[C@@H]3CCOC3)c(C)c(N3CCNCC3)n2)c1 (stereo partly drawn) [Example 422-1a]	10 to 20
CNCC(O)COc1cccc(-c2nc(N[C@@H]3CCOC3)c(C)c(N3CCC4(CC3)CNC(=O)C4)n2)c1 (stereo partly drawn) [Example 424-1a]	10 to 20
CNCC(O)COc1cccc(-c2nc(N[C@@H]3CCOC3)c(C)c(N3CCS(=O)(=O)CC3)n2)c1 (stereo partly drawn) [Example 425-1a]	10 to 20
CNCC(O)COc1cccc(-c2nc(N[C@@H]3CCOC3)c(C)c(N3Cc4ccncc4C3)n2)c1 (stereo partly drawn) [Example 427-1a]	< 5
CNCC(O)COc1cccc(-c2nc(N[C@@H]3CCOC3)c(C)c(N3CCC4(CCNCC4)CC3)n2)c1 (stereo partly drawn) [Example 429-1a]	10 to 20
CNCC(O)COc1cccc(-c2nc(N[C@@H]3CCOC3)c(C)c(N3CCN(S(C)(=O)=O)CC3)n2)c1 (stereo partly drawn) [Example 434-1a]	< 5
CNCC(O)COc1cccc(-c2nc(N[C@@H]3CCOC3)c(C)c(N3CCN(C)C(=O)C3)n2)c1 (stereo partly drawn) [Example 435-1a]	10 to 20
CNCC(O)COc1cccc(-c2nc(N[C@@H]3CCOC3)c(C)c(N3CCN(C4CC4)CC3)n2)c1 (stereo partly drawn) [Example 436-1a]	< 5
CNCC(O)COc1cccc(-c2nc(N[C@@H]3CCOC3)c(C)c(N3CC[C@@H](O)C3)n2)c1 (stereo partly drawn) [Example 437-1a]	5 to 10
CNCC(O)COc1cccc(-c2nc(N[C@@H]3CCOC3)c(C)c(N3CCN(C(C)=O)C(C)(C)C3)n2)c1 (stereo partly drawn) [Example 439-1a]	5 to 10
CNCC(O)COc1cccc(-c2nc(N[C@@H]3CCOC3)c(C)c(N3C[C@H]4CNC[C@H]4C3)n2)c1 (stereo partly drawn) [Example 440-1a]	10 to 20
CNCC(O)COc1cccc(-c2nc(N[C@@H]3CCOC3)c(C)c(N3CCC(S(C)(=O)=O)CC3)n2)c1 (stereo partly drawn) [Example 441-1a]	5 to 10

SMILES	IC50 [µM]
CNCC(O)COc1cccc(-c2nc(NC3CCOC3)c(C)c(N3CC(N)CC(Cl)C3)n2)c1 (stereo not drawn) [Example 442-1a]	10 to 20
CNCC(O)COc1cccc(-c2nc(N[C@@H]3CCOC3)c(C)c(N3C[C@H]4C[C@@H]3CN4C)n2)c1 (stereo partly drawn) [Example 443-1a]	10 to 20
CNCC(O)COc1cccc(-c2nc(NC3CCOC3)c(C)c(N3CCN(CCF)CC3)n2)c1 (stereo not drawn) [Example 446-1a]	< 5
CNCC(O)COc1cccc(-c2nc(NC3CCOC3)c(C)c(N3CCN(C(=O)OC)C(C)(C)C3)n2)c1 (stereo not drawn) [Example 447-1a]	10 to 20
CCS(=O)(=O)N1CCN(c2nc(-c3cccc(OCC(O)CNC)c3)nc(NC3CCOC3)c2C)CC1(C)C (stereo not drawn) [Example 448-1a]	< 5
CNCC(O)COc1cccc(-c2nc(NC3CCOC3)c(C)c(N3CCN(CC(F)(F)F)CC3)n2)c1 (stereo not drawn) [Example 449-1a]	< 5
CNCC(O)COc1cccc(-c2nc(NC3CCOC3)c(C)c(N3CC4CC(C3)N4)n2)c1 (stereo not drawn) [Example 452-1a]	10 to 20
CNCC(O)COc1cccc(-c2nc(NC3CCOC3)c(C)c(N3CCN4C(=O)OC[C@@H]4C3)n2)c1 (stereo partly drawn) [Example 454-1a]	5 to 10
CNCC(O)COc1cccc(-c2nc(NC3CCOC3)c(C)c(N3CCN(C)C(C)(C)C3)n2)c1 (stereo not drawn) [Example 455-1a]	< 5
CCOC(=O)N1CCN(c2nc(-c3cccc(OCC(O)CNC)c3)nc(N[C@@H]3CCOC3)c2C)CC1 (stereo partly drawn) [Example 456-1a]	< 5
CNCC(O)COc1cccc(-c2nc(NC3CCOC3)c(C)c(N3CCN(CC(F)F)C(C)(C)C3)n2)c1 (stereo not drawn) [Example 457-1a]	10 to 20
CNCC(O)COc1cccc(-c2nc(N[C@@H]3CCOC3)c(C)c(N3CCN(CC(F)F)CC3)n2)c1 (stereo partly drawn) [Example 458-1a]	< 5
CNCC(O)COc1cccc(-c2nc(N[C@@H]3CCOC3)c(C)c(N3CCC(c4cccnc4)C3)n2)c1 (stereo partly drawn) [Example 461-1a]	10 to 20
CNCC(O)COc1cccc(-c2nc(N[C@@H]3CCOC3)c(C)c(N3CCC4(CCOCC4)C3)n2)c1 (stereo partly drawn) [Example 462-1a]	10 to 20
CNCC(O)COc1cccc(-c2nc(N[C@@H]3CCOC3)c(C)c(N3CCN(C)[C@H](C)C3)n2)c1 (stereo partly drawn) [Example 463-1a]	< 5
CCS(=O)(=O)N1CCN(c2nc(-c3cccc(OCC(O)CNC)c3)nc(N[C@@H]3CCOC3)c2C)CC1 (stereo partly drawn) [Example 464-1a]	< 5
CNCC(O)COc1cccc(-c2nc(N[C@@H]3CCOC3)c(C)c(N3Cc4nc(C)sc4C3)n2)c1 (stereo partly drawn) [Example 465-1a]	< 5
CNCC(O)COc1cccc(-c2nc(N[C@@H]3CCOC3)c(C)c(N3CCN(C4CC4)[C@H](C)C3)n2)c1 (stereo partly drawn) [Example 466-1a]	< 5
CNCC(O)COc1cccc(-c2nc(N[C@@H]3CCOC3)c(C)c(N3CC[C@@H](c4cccnc4)C3)n2)c1 (stereo partly drawn) [Example 467-1a]	< 5
CNCC(O)COc1cccc(-c2nc(N[C@@H]3CCOC3)c(C)c(N3CCC(n4nc(C)cc4C)C3)n2)c1 (stereo partly drawn) [Example 468-1a]	5 to 10
CNCC(O)COc1cccc(-c2nc(N[C@@H]3CCOC3)c(C)c(N3CCCC4(CN(CC(F)F)C4)C3)n2)c1 (stereo partly drawn) [Example 469-1a]	5 to 10
CCOC(=O)N1CCN(c2nc(-c3cccc(OCC(O)CNC)c3)nc(N[C@@H]3CCOC3)c2C)C[C@H]1C (stereo partly drawn) [Example 470-1a]	< 5
CNCC(O)COc1cccc(-c2nc(N[C@@H]3CCOC3)c(C)c(N3CCN(CC(F)F)[C@H](C)C3)n2)c1 (stereo partly drawn) [Example 471-1a]	< 5

SMILES	IC50 [µM]
CNCC(O)COc1cccc(-c2nc(N[C@@H]3CCOC3)c(C)c(N3CCC4(CN(CC(F)F)C4)C3)n2)c1 (stereo partly drawn) [Example 475-1a]	5 to 10
CNCC(O)COc1cccc(-c2nc(-c3cnc4c(C(=O)OC)cnn4c3)cc(N(C)C3CCOCC3)n2)c1 (stereo not drawn) [Example 482-1a]	< 5
CNCC(O)COc1cccc(-c2nc(-c3cn(S(C)(=O)=O)c4ncncc34)cc(N(C)C3CCOCC3)n2)c1 (stereo not drawn) [Example 483-1a]	< 5
CNCC(O)COc1cccc(-c2nc(-c3cn(C)c4ncncc34)cc(N(C)C3CCOCC3)n2)c1 (stereo not drawn) [Example 485-1a]	< 5
CNC[C@H](O)COc1cccc(-c2nc(-c3cnc4cnccn34)cc(N(C)C3CCOCC3)n2)c1 [Example 486-1a]	< 5
CNCC(O)COc1cccc(-c2nc(N(C)c3cncnc3)cc(N(C)C3CCOCC3)n2)c1 (stereo not drawn) [Example 487-1a]	< 5
CNC[C@@H](O)COc1cccc(-c2nc(-c3cn(S(C)(=O)=O)c4ncncc34)c(C)c(N(C)C3CCOCC3)n2)c1 [Example 488-1a]	< 5
CNCC(O)COc1cccc(-c2nc(-c3cnc4ncccn34)cc(N(C)C3CCOCC3)n2)c1 (stereo not drawn) [Example 489-1a]	< 5
CNCC(O)COc1cccc(-c2nc(-c3cnc4cnccn34)cc(N(C)C3CCOCC3)n2)c1 (stereo not drawn) [Example 490-1a]	< 5
CNCC(O)COc1cccc(-c2nc(-c3ncc(C)n3C)cc(N(C)C3CCOCC3)n2)c1 (stereo not drawn) [Example 491-1a]	< 5
CNCC(O)COc1cc(OC)cc(-c2nc(-c3cnc4cnccn34)cc(N(C)C3CCOCC3)n2)c1 (stereo not drawn) [Example 492-1a]	< 5
CNCC(O)COc1cccc(-c2nc(-c3csnc3C)cc(N(C)C3CCOCC3)n2)c1 (stereo not drawn) [Example 493-1a]	< 5
CNCC(O)COc1cccc(-c2nc(-c3scnc3C)cc(N(C)C3CCOCC3)n2)c1 (stereo not drawn) [Example 495-1a]	< 5
CNCC(O)COc1cccc(-c2nc(-c3c(C)nn(C(C)C)c3C)cc(N(C)C3CCOCC3)n2)c1 (stereo not drawn) [Example 496-1a]	< 5
CNCC(O)COc1cccc(-c2nc(-c3ccnc(C#N)c3)cc(N(C)C3CCOCC3)n2)c1 (stereo not drawn) [Example 498-1a]	< 5
CNCC(O)COc1cccc(-c2nc(-c3ccc(S(C)(=O)=O)cc3)cc(N(C)C3CCOCC3)n2)c1 (stereo not drawn) [Example 499-1a]	< 5
CNCC(O)COc1cccc(-c2nc(N3CCOCC3)c(F)c(N(C)C3CCOCC3)n2)c1 (stereo not drawn) [Example 500-1a]	< 5
CNCC(O)COc1cccc(-c2nc(-c3cn(C)cn3)cc(N(C)C3CCOCC3)n2)c1 (stereo not drawn) [Example 501-1a]	< 5
CNCC(O)COc1cccc(-c2nc(N3CCN(C)[C@@H](C)C3)cc(N(C)C3CCOCC3)n2)c1 (stereo partly drawn) [Example 502-1a]	< 5
CNCC(O)COc1cccc(-c2nc(-c3ccnc(C(C)(C)O)c3)cc(N(C)C3CCOCC3)n2)c1 (stereo not drawn) [Example 503-1a]	< 5
CNCC(O)COc1cccc(-c2nc(-c3c[nH]c4ncncc34)cc(N(C)C3CCOCC3)n2)c1 (stereo not drawn) [Example 504-1a]	< 5
CC[C@H]1CN(c2cc(N(C)C3CCOCC3)nc(-c3cccc(OCC(O)CNC)c3)n2)CCN1 (stereo partly drawn) [Example 505-1a]	< 5
CNCC(O)COc1cc(Cl)cc(-c2nc(Nc3cncnc3)c(C)c(N(C)C3CCOCC3)n2)c1 (stereo not drawn) [Example 506-1a]	< 5
